Laboratory results: BindingDB's records for doi:10.1111/j.1747-0285.2009.00902.x (Institut Des BiomolÉCules Max Mousseron (Ibmm), 2009)
“And” between values parts separate entries of the source, which are not always exact repeats. Identical values can stand only once.

Molecular target: Carbonic anhydrase 6 (Homo sapiens, UniProt P23280)
Assay: Enzyme Inhbition Assay
Settings: pH 7.5; 20 °C
Description: Inhibition assay using carbonic anhydrases with an SX.18MV-R, a stopped-flow instrument from Applied Photophysics was used for assaying the CA catalyzed CO2 hydration activity.

Carbonic anhydrase 6, sequence (P23280 whole entry): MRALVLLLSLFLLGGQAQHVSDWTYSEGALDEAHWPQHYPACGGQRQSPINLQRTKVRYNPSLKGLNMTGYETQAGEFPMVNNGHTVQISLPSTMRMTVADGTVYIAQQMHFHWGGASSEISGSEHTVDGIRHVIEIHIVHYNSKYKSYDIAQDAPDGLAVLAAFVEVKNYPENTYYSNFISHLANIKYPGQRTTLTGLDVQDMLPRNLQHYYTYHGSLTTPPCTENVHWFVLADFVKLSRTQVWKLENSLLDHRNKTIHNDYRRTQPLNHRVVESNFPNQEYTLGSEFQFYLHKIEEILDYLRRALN

| SMILES | Ki |
| --- | --- |
| NS(=O)(=O)c1ccc(NC2OCC(O)C(O)C2O)cc1 (configuration not stated) | 3.5 nM and 5.1 nM and 0.56 nM |
| CC1OC(Nc2ccc(S(N)(=O)=O)cc2)C(O)C(O)C1O (configuration not stated) | 3.4 nM and 13 nM |
